Drawing on PubChem BioAssay (NCI), this text covers GI50 and TGI for ten compounds.

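Tested at 5 concentrations; 48 h exposure; 96-well plates; endpoints linearly interpolated, else capped at highest concentration. GI50 = concentration required for 50% inhibition of growth. TGI: concentration producing complete growth inhibition.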

Common to all, as to test: DTP human tumour cell line panel, 48 h
Test [1] deals with A549 NSCLC.
The test system of test [2] is PC-3 prostate.
Test [3] has as its system NCI-H23 lung.
Test [4] relates to MOLT-4 leukemia.
The test system of test [5] is SF-539 CNS.
Test [6] relates to K-562 leukemia.
In test [7] the test system is DU-145 prostate.
For test [8], the system named is OVCAR-3 ovarian.
Test [9] has as its system SK-MEL-5 melanoma.
In test [10] the test system is A498 renal.

With `CCCC(=O)Nc1ncnc2c1ncn2C1OC2COP(=O)(O)OC2C1OC(=O)CCC` (stereo not drawn), the GI50 in [1], in [2], in [3], in test [4], in test [6] and in test [7] was greater than 1000 µM throughout. For the same compound, the GI50 in [8] and in test [9] was greater than 1000 µM each time. Also, the TGI in test [1], in test [2], in [3], in [4], in [5] and in test [6] was greater than 1000 µM in each case. The total growth inhibition concentration (TGI) (commonly the concentration at which net growth stops) was greater than 1000 µM in [7], greater than 1000 µM in test [8], greater than 1000 µM in test [9] and 92.8 µM in test [10].
On to `O=c1cc(-c2ccccc2)nc2cc(-c3ccco3)[nH]n12`, for which the GI50 (as a rule, the concentration that inhibits growth by half) in test [1] is 12.6 µM; in test [2], 15 µM; in [3], 13.2 µM; in test [4], 10.7 µM; in test [5], 13.3 µM; in [6], 4.06 µM. For the same compound, the GI50 in test [7] is 19.5 µM; in test [8] it was 10.8 µM; in [9] it was 6.58 µM; in test [10], 3.6 µM. Further, the TGI was greater than 100 µM in [1]; greater than 100 µM in [2]; 89.1 µM in test [3]; greater than 100 µM in test [4]; 78.9 µM in [5]; greater than 100 µM in test [6]. The TGI in test [7] was determined as 79.7 µM; in test [8] it was 37.1 µM; in [9], 22.1 µM; in [10] it was 28.6 µM.
Turning to `O=[N+]([O-])c1ccc(NN=C2c3ccccc3Cc3ccccc32)c([N+](=O)[O-])c1`, the TGI in [1], in test [2], in [3], in test [4], in [5] and in [6] was greater than 100 µM each time. Further, the TGI is greater than 100 µM in test [7], 5.19 µM in test [8], greater than 100 µM in [9] and greater than 100 µM in [10].
As to `O=C(Nc1ccc(Cl)cc1F)c1cc(Cl)ccc1O`, the GI50 is 1.34 µM in test [1]; 1.28 µM in [2]; 0.294 µM in test [3]; 1.14 µM in test [4]; 0.432 µM in test [5]; 0.361 µM in [6]. Besides, the GI50 in test [7] was 0.915 µM; in test [8], 0.412 µM; in test [9] it was 0.209 µM; in test [10], 0.26 µM. Further, the total growth inhibition concentration (TGI) in test [1] is greater than 100 µM; in [2], 5.64 µM; in test [3], 1.91 µM; in test [4], 3.99 µM; in [5], 4.58 µM; in [6] it was greater than 59.2 µM. Further, the TGI in test [7] is greater than 42.8 µM; in test [8], greater than 20.5 µM; in test [9] it was 0.529 µM; in test [10], 0.924 µM.
On to `Cc1ccc2nc(CC(=O)c3ccc4ccccc4c3)c(=O)[nH]c2c1`, for which the TGI in test [1], in test [2], in test [3], in [4], in test [5] and in [6] was greater than 100 µM throughout. Further, the TGI in test [7], in test [8], in test [9] and in [10] was greater than 100 µM in each case.
Take `CCNC(=O)c1ccc2c(c1)nc(-c1ccc(Cl)cc1)n2-c1cc(C(C)(C)C)[nH]n1`: the GI50 in test [1] was 3.19 µM; in test [2], 2.87 µM; in test [3], 2.78 µM; in test [4], 3.49 µM; in test [5], 3 µM; in test [6], 3.35 µM. Also, the GI50 is 3.72 µM in [7], 2.49 µM in test [8], 1.54 µM in test [9] and 2.24 µM in [10]. The TGI in [1] is 31.9 µM; in test [2], 48.8 µM; in test [3], 20.3 µM; in test [4], 25.1 µM; in [5], 11 µM; in test [6], 16.8 µM. For the same compound, the TGI came out at 34.9 µM in [7], 7.77 µM in test [8], 5.72 µM in [9] and 6.53 µM in test [10].
For `C/C=C(\C)C(=O)OC1C2C(C)C(=O)OC2C(O)C(C)C2C=CC(=O)C21C` (stereo not drawn), the TGI in [1] is 61.3 µM; in [2], 34.1 µM; in test [3] it was 27.1 µM; in [4], 33.7 µM; in [5], 36.4 µM; in test [6], 17.4 µM. Also, the concentration for total growth inhibition (TGI) in test [7] stood at 24.7 µM; in test [8], 23.7 µM; in test [9] it was 21.4 µM; in test [10], 53.3 µM.
As to `C=C(CN(C)C)C(=O)c1ccc(OC)cc1`, the concentration for total growth inhibition (TGI) in test [1] was found to be 42.8 µM; in [2], 28.5 µM; in [3], 22.2 µM; in test [4] it was 2.06 µM; in test [5], 9.56 µM; in test [6], 4.39 µM. For the same compound, the TGI in test [7] was 10.7 µM; in test [8], 10.4 µM; in [9], 18 µM; in [10] it was 25.6 µM.
`O=C(O)CP(=O)(c1ccccc1)c1ccccc1.O=C(O)CP(=O)(c1ccccc1)c1ccccc1.[Cd]`: the GI50 was 17.1 µM in test [1]; 18 µM in [2]; 20.2 µM in test [3]; 33.4 µM in [4]; 11.4 µM in test [5]; 15.1 µM in [6]. Also, the GI50 in [7] is 19.4 µM; in test [8], 2.56 µM; in test [9] it was 2.19 µM; in test [10], 19.9 µM. Besides, the TGI in test [1] stood at 35.1 µM; in test [2] it was 35.1 µM; in [3] it was 41.9 µM; in test [4] it was 52.4 µM; in test [5], 26.2 µM; in test [6] it was 36.8 µM. The TGI in test [7] was found to be 41.3 µM; in test [8], 15.4 µM; in [9] it was 13.3 µM; in test [10], 39.8 µM.
For the compound `Cc1cc(O)c(O)c(Oc2cc(C)cc(O)c2O)c1`, the TGI in test [1], in [2], in test [3], in test [4], in test [5] and in test [6] was greater than 100 µM each time. Further, the TGI in test [7], in [8], in test [9] and in test [10] was greater than 100 µM in each case.
